Assay in all cases: NCI tumour cell line growth inhibition, 48 h
Assay [1] relates to ACHN renal.
The subject of assay [2] is HCC-2998 colon.
Assay [3] deals with LOX IMVI melanoma.
Assay [4] relates to M14 melanoma.
Assay [5] deals with MALME-3M melanoma.
For assay [6], the system named is RPMI-8226 leukemia.
Assay [7] deals with SN12C renal.
The test system of assay [8] is SR leukemia.
Assay [9] relates to TK-10 renal.
In assay [10] the test system is UACC-257 melanoma.

Several values for one entry are separate records, joined by “and”; a condition that tells them apart may be missing. Identical values can stand only once.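 Interpolation was linear, between the two tested concentrations surrounding the appropriate level; five concentrations were tested over 48 hours in 96-well plates. The concentration for 50% growth inhibition is given as GI50. TGI: concentration producing complete growth inhibition.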

Regarding `O=C(CCCCN1CCN(CCCCC(=O)Nc2ccccc2C#C/C=C\C#Cc2ccccc2C(F)(F)F)CC1)Nc1ccccc1C#C/C=C\C#Cc1ccccc1C(F)(F)F`, the GI50 in assay [1] was 20.9 µM; in assay [2] it was 9.14 µM; in assay [3], 10.1 µM; in [4] it was 11.7 µM; in assay [5], 12.2 µM; in [6], 7.46 µM. The GI50 in assay [7] was 17.6 µM; in assay [8], 3.23 µM; in [9] it was 16.6 µM; in assay [10] it was 10.8 µM. The TGI in assay [1] was above 50 µM; in assay [2], 17.5 µM; in assay [3], 20.2 µM; in [4], 25.9 µM; in assay [5], 29.5 µM; in assay [6] it was 19.1 µM. The TGI in assay [7] was above 50 µM; in assay [8], 16.6 µM; in assay [9], 36 µM; in assay [10], 22.5 µM.

For `CCN1C(=O)N(CC)C2C1NC(=S)N2/N=C/C=C/c1ccccc1` (configuration not stated), the GI50 in [1] is 0.098 µM; in assay [2], 0.328 µM; in assay [3], 0.154 µM; in assay [4], 0.0881 µM; in assay [5], 3.55 µM; in [6] it was 0.183 µM. Moreover, the GI50 in assay [7] was 0.385 µM; in [8], 0.0444 µM; in assay [9], 3.66 µM; in [10], above 100 µM. The TGI is above 100 µM in assay [1]; above 58.6 µM in assay [2]; above 100 µM in assay [3]; above 100 µM in assay [4]; above 100 µM in assay [5]; above 64.2 µM in assay [6]. The TGI in assay [7], in assay [8], in [9] and in [10] was above 100 µM throughout.

Turning to `CCCCCCCCCCCCCC(=O)O[C@H]1CC[C@H](NC(=O)[C@H](OC)[C@H](O)[C@@H](O)[C@H](O)/C=C/C(C)C)C(=O)N(C)C1`, the GI50 in assay [1] was 0.0306 µM; in assay [2], 0.00238 µM; in assay [4], 0.00238 µM; in [5] it was 0.00717 µM; in assay [6], 0.00392 µM; in [7], 0.00238 µM. For the same compound, the values for the GI50 in assay [9] and in assay [10] were 0.05 µM and 0.00238 µM, respectively. Further, the TGI in [1] is 15 µM and > 23.8 µM; in assay [2] it was 0.63 µM and 4.25 µM; in assay [3], 15 µM and 3.34 µM; in assay [4], 1.75 µM and 0.413 µM; in assay [5], 15 µM and > 23.8 µM; in [6] it was 15 µM and 8.02 µM. For the same compound, the TGI is 15 µM and 4.84 µM in assay [7]; 2.46 µM in assay [8]; 15 µM and > 23.8 µM in assay [9]; 15 µM and 13 µM in [10].

As for `O=C1OC(=O)c2c1nc1ccccc1c2-c1ccccc1`, the TGI in assay [1], in assay [2], in [3], in assay [4], in [5] and in assay [6] was above 100 µM each time. For the same compound, the TGI in [7], in assay [8], in [9] and in [10] was above 100 µM each time.

`COc1ccc([C@@]23Oc4cc(OC)cc(OC)c4[C@]2(O)[C@H](O)[C@H](C(=O)N(C)C)[C@H]3c2ccccc2)cc1`: the TGI was 0.0615 µM and 0.224 µM in assay [2]; 0.0189 µM and 0.0225 µM in assay [3]; 0.014 µM in assay [4]; 0.329 µM and 0.0664 µM and 0.186 µM in [7]; 0.0531 µM and 0.15 µM and 0.435 µM in assay [9]. Also, the GI50 in [5] is 0.0142 µM; in assay [6], 0.0164 µM; in [7], 0.0192 µM; in assay [8], 0.016 µM; in assay [9] it was 0.0484 µM; in assay [10], 0.0309 µM.

As to `O=c1[nH]c2ccccc2cc1-c1nnc(Cc2ccccc2)o1`, the GI50 in [2] is 12.7 µM; in assay [3] it was 1.75 µM; in assay [4], 3.16 µM; in assay [5] it was 3.94 µM; in assay [6] it was 1.94 µM; in assay [7], 3.46 µM. Further, the GI50 in assay [8] is 2.03 µM; in [9] it was 5.23 µM; in assay [10], 4.79 µM. Besides, the TGI came out at 27.5 µM in assay [2]; 4.3 µM in assay [3]; 15.2 µM in [4]; 16.2 µM in [5]; 6.67 µM in assay [6]; 28.2 µM in [7]. The TGI in assay [8] came out at 10.9 µM; in assay [9] it was 16 µM; in assay [10], 24.4 µM.
